Data published in publication PMC3838804, “Rapid Identification of Aldose Reductase Inhibitory Compounds from Perilla frutescens” (BioMed Research International, 2013).
Where two headings read alike, the source gives them in different places.

Assays:
[1] = target: rAR (rat lens aldose reductase) (Rattus norvegicus, UniProt P07943); assay: Assay for rAR inhibitory activity (NADPH absorption decrease at 340 nm, DL-glyceraldehyde substrate); format: biochemical; settings: for rAR inhibitory activity (in words): isolated compound; for IC50: read-out: IC50 on rAR (isolated compounds)
Procedure: Crude rAR was prepared as follows. Rat lenses were removed from closed male Sprague-Dawley rats weighing 250–280 g and frozen until required. The rat lens homogenate was prepared according to Hayman and Kinoshita with some modifications [20, 21]. […] The partially purified material was separated into 1.0 mL aliquots and stored at 40°C. rAR activity was assayed spectrophotometrically by measuring the decrease in NADPH absorption at 340 nm over a 4 min period with dl-glyceraldehyde substrate. Each 1.0 mL cuvette contained equal units of the enzyme, 0.10 M sodium phosphate buffer (pH 6.2), and 0.3 mM NADPH, with or without 10 mM substrate and an inhibitor [22, 23].

rAR (aldose reductase) = target: T1, rAR (aldose reductase) (Rattus norvegicus, UniProt P07943); assay: HPLC microfractionation combined with 96-well enzyme assay for rAR inhibition; format: biochemical; settings: HPLC microfractions of EtOAc soluble fraction (10 μL of 10 mg/mL injected), 96-well plate; hit limit 18.49%
T1 construct: The rat lens homogenate was prepared according to Hayman and Kinoshita with some modifications; from tissue; host or cells: rat lens (male Sprague-Dawley rats)
Procedure: An automated fraction collector (Foxy 200; ISCO, Lincoln, NE, USA) coupled with HPLC equipment (Thermo Electron Spectra HPLC system; Thermo Separation Products, San Jose, CA, USA) was used to separate and collect compounds from extracts directly into 96-well plates (Nunc, Roskilde, Denmark) at 0.4 mL/well (Figure 1). […] The mobile phase, consisting of acetonitrile (ACN) and 0.1% aqueous trifluoroacetic acid (TFA), was used at a flow rate of 0.8 mL/min. The gradient elution program was 7.5–26.5% B (0–20 min), 26.5% B (20–30 min), 26.5–36% B (30–40 min), and 36–100% B (40–45 min). Injection volume was 10 μL at sample concentration 10 mg/mL and detection wavelength 280 nm. After collection, all fractions were evaporated to dryness using an EZ-2 plus evaporator (Gene Vac Ltd., Ipswich, UK).
The effect on rAR inhibitory activity (%) was calculated as the change in absorbance in a sample well versus the change in absorbance in a blank well (average, n = 12). Spontaneous hydrolysis was subtracted from the reaction rate. The hit limit was set at 3 standard deviations (SD) from the minimum AR inhibitory activity. Z′-factor, signal-to-background ratio (S/B), and signal-to-noise ratio(S/N) were used to evaluate the quality of the test: Z′ = 1[(3 × SDs + 3 × SDb)/|X s X b|], S/B = X s/X b, and S/N = (X s X b)/(SDs ^2 + SDb ^2)^1/2; X s and SDs are average and standard deviation of the signal, that is, absorption detected at the 8th measurement point in blank wells (n = 12) after adding the enzyme; X b and SDb are average and SD of the background, that is, absorption at the first measurement point in blank wells (n = 12) after adding the enzyme.
Crude rAR was prepared as follows. Rat lenses were removed from […] male Sprague-Dawley rats weighing 250–280 g and frozen until required. The rat lens homogenate was prepared according to Hayman and Kinoshita with some modifications. A partially purified enzyme with a specific activity of 6.5 U/mg was routinely used to test enzyme inhibition. The partially purified material was separated into 1.0 mL aliquots and stored at […]. rAR activity was assayed spectrophotometrically by measuring the decrease in NADPH absorption at 340 nm over a 4 min period with dl-glyceraldehyde substrate. Each 1.0 mL cuvette contained equal units of the enzyme, 0.10 M sodium phosphate buffer (pH 6.2), and 0.3 mM NADPH, with or without 10 mM substrate and an inhibitor [22, 23].

| rAR inhibitory activity in the corresponding wells (rAR (aldose reductase)) [%] | IC50 [1] [µM] | SMILES | rAR inhibitory activity (in words) [1] | IC50 ([1]; concentration at 50% inhibition, crude rat lens AR, pH 6.2) [µM] |
| --- | --- | --- | --- | --- |
| 34.50 | 3.16 | O=C(/C=C/c1ccc(O)c(O)c1)O[C@@H]1C[C@](O)(C(=O)O)C[C@@H](O)[C@H]1O [Compound 2, chlorogenic acid] |  |  |
| 21.31 |  | O=C(O)/C=C/c1ccc(O)c(O)c1 [Compound 3, caffeic acid] | weak inhibitory activity |  |
| 29.46 |  | O=c1cc(-c2ccc(O)c(O)c2)oc2cc(O)cc(O)c12 [Compound 5, luteolin] |  |  |
| 22.94 | 4.03 | COC(=O)[C@@H](Cc1ccc(O)c(O)c1)OC(=O)/C=C/c1ccc(O)c(O)c1 [Compound 6, methyl rosmarinic acid] |  |  |

| SMILES | rAR inhibitory activity in the corresponding wells (rAR (aldose reductase)) [%] | IC50 [1] [µM] | rAR inhibitory activity (in words) [1] | IC50 ([1]; concentration at 50% inhibition, crude rat lens AR, pH 6.2) [µM] |
| --- | --- | --- | --- | --- |
| O=C(O)c1ccc(O)c(O)c1 [Compound 1, protocatechuic acid] | 20.46 |  | did not exhibit inhibitory activity |  |
| O=C(/C=C/c1ccc(O)c(O)c1)O[C@H](Cc1ccc(O)c(O)c1)C(=O)O [Compound 4, rosmarinic acid] | 53.31 |  |  | 2.77 |
